Tests used:
Test in all cases: relative viability (nuclei count vs DMSO), 5 days (fraction); higher = more cells survive
Bexarotene + Linsitinib = compound: C=C(c1ccc(C(=O)O)cc1)c1cc2c(cc1C)C(C)(C)CCC2(C)C [Bexarotene] + C[C@]1(O)C[C@@H](c2nc(-c3ccc4ccc(-c5ccccc5)nc4c3)c3c(N)nccn32)C1 [Linsitinib] (partner 1 µM)
How it was run: (§1)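 After 5 days of treatment, lung cancer cells in 1536-well plates were fixed and stained in a single step (final 0.05% Triton X-100, 1% formaldehyde, 1 ug/ml Hoechst) and their nuclei counted on 4× images. Treatment had been applied by pin tool the day after seeding as one drug alone or as a fixed anchor-drug dose with five library-drug doses (not always all listed) in √10 steps. Relative viability is the nuclei count of treated wells divided by that of vehicle wells, and values are medians of duplicate plates.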

Bexarotene + Pictilisib = compound: C=C(c1ccc(C(=O)O)cc1)c1cc2c(cc1C)C(C)(C)CCC2(C)C [Bexarotene] + CS(=O)(=O)N1CCN(Cc2cc3nc(-c4cccc5[nH]ncc45)nc(N4CCOCC4)c3s2)CC1 [Pictilisib] (partner 1 µM)
How it was run: as §1

Bexarotene + Alpelisib = compound: C=C(c1ccc(C(=O)O)cc1)c1cc2c(cc1C)C(C)(C)CCC2(C)C [Bexarotene] + Cc1nc(NC(=O)N2CCC[C@H]2C(N)=O)sc1-c1ccnc(C(C)(C)C(F)(F)F)c1 [Alpelisib] (partner 2 µM)
How it was run: as §1

Bexarotene + Decitabine = compound: C=C(c1ccc(C(=O)O)cc1)c1cc2c(cc1C)C(C)(C)CCC2(C)C [Bexarotene] + Nc1ncn([C@H]2C[C@H](O)[C@@H](CO)O2)c(=O)n1 [Decitabine] (partner 2 µM)
How it was run: as §1

| Cell Line | relative viability (Bexarotene + Linsitinib; first compound 0.08 µM) | relative viability (Bexarotene + Linsitinib; first compound 0.253 µM) | relative viability (Bexarotene + Linsitinib; first compound 0.8 µM) | relative viability (Bexarotene + Linsitinib; first compound 2.53 µM) | relative viability (Bexarotene + Linsitinib; first compound 8 µM) | relative viability (Bexarotene + Pictilisib; first compound 0.08 µM) | relative viability (Bexarotene + Pictilisib; first compound 0.253 µM) | relative viability (Bexarotene + Pictilisib; first compound 0.8 µM) | relative viability (Bexarotene + Pictilisib; first compound 2.53 µM) | relative viability (Bexarotene + Pictilisib; first compound 8 µM) | relative viability (Bexarotene + Alpelisib; first compound 0.08 µM) | relative viability (Bexarotene + Alpelisib; first compound 0.253 µM) | relative viability (Bexarotene + Alpelisib; first compound 0.8 µM) | relative viability (Bexarotene + Alpelisib; first compound 2.53 µM) | relative viability (Bexarotene + Alpelisib; first compound 8 µM) | relative viability (Bexarotene + Decitabine; first compound 0.08 µM) | relative viability (Bexarotene + Decitabine; first compound 0.253 µM) | relative viability (Bexarotene + Decitabine; first compound 0.8 µM) | relative viability (Bexarotene + Decitabine; first compound 2.53 µM) | relative viability (Bexarotene + Decitabine; first compound 8 µM) |
| --- | --- | --- | --- | --- | --- | --- | --- | --- | --- | --- | --- | --- | --- | --- | --- | --- | --- | --- | --- | --- |
| HCC-78 | 0.524 | 0.461 | 0.44 | 0.374 | 0.392 | 0.228 | 0.196 | 0.215 | 0.182 | 0.194 | 0.315 | 0.268 | 0.28 | 0.25 | 0.259 | 0.735 | 0.705 | 0.673 | 0.528 | 0.749 |
| NCI-H2085 | 0.776 | 0.793 | 0.797 | 0.685 | 0.712 | 0.449 | 0.461 | 0.431 | 0.386 | 0.476 | 0.892 | 0.924 | 0.873 | 0.855 | 0.824 | 0.539 | 0.545 | 0.512 | 0.487 | 0.536 |
| PC-14 | 0.99 | 1.06 | 0.935 | 1 | 0.934 | 0.663 | 0.724 | 0.7 | 0.704 | 0.565 | 1.02 | 1.06 | 0.9 | 0.957 | 0.921 | 0.288 | 0.251 | 0.251 | 0.206 | 0.209 |
| NCI-H1648 |  |  |  |  |  |  |  |  |  |  |  |  |  |  |  | 0.489 | 0.409 | 0.451 | 0.36 | 0.465 |
| A-427 | 1.03 | 0.833 | 1.04 | 1.05 | 0.993 | 0.79 | 0.667 | 0.613 | 0.537 | 0.569 | 1.08 | 1.02 | 0.89 | 0.89 | 0.926 | 0.57 | 0.461 | 0.435 | 0.477 | 0.533 |
| H3255 | 0.964 | 0.995 | 0.985 | 0.991 | 0.934 | 0.574 | 0.504 | 0.607 | 0.493 | 0.528 | 0.655 | 0.789 | 0.715 | 0.862 | 0.72 | 0.923 | 0.695 | 0.587 | 0.507 | 0.562 |
| HCC-44 | 0.683 | 0.727 | 0.56 | 0.683 | 0.615 | 0.661 | 0.663 | 0.479 | 0.579 | 0.459 | 0.894 | 0.855 | 0.741 | 0.735 | 0.722 | 1.07 | 0.96 | 0.907 | 1.01 | 0.897 |
| NCI-H1734 | 0.906 | 0.857 | 0.81 | 0.794 | 0.806 | 0.559 | 0.462 | 0.4 | 0.442 | 0.43 | 0.718 | 0.708 | 0.652 | 0.637 | 0.633 | 0.522 | 0.461 | 0.498 | 0.483 | 0.441 |
| NCI-H2228 | 0.905 | 0.818 | 0.586 | 0.656 | 0.749 | 0.476 | 0.572 | 0.358 | 0.454 | 0.336 | 0.669 | 0.722 | 0.609 | 0.629 | 0.499 |  |  |  |  |  |

Reference: the supplement of paper PMC10307832
